# Laboratory results: patent publication US9187435B2, “Bridged Spiro[2.4]heptane ester derivatives” (Actelion Pharmaceuticals Ltd., priority 2010, dated 2015)
# Counter-ions that a name gives are not always drawn.
# Molecular target: T1, human ALX receptor (Homo sapiens, UniProt P25090)
# T1 construct: expressed in transfected cells; host or cells: HEK293 (HEK293-hALXR-Gα16)
# T1 sequence (P25090 1-351): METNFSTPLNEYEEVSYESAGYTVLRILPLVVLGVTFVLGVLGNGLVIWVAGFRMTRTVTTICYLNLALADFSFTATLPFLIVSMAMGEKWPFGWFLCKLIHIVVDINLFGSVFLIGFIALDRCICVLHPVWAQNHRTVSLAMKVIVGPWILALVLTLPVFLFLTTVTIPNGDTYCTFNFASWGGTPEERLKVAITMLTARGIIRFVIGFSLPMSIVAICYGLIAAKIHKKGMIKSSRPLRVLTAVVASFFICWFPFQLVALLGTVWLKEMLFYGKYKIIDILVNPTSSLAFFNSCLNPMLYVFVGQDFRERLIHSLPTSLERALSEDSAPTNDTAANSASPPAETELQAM
# Test: Intracellular calcium measurements (FLIPR) in HEK293-hALXR-Gα16 cells, agonistic activity
# Type: cell-based
# Conditions: values normalized to WKYMVm 10 nM
# Experimental: The ALX receptor and FPRL2 agonistic activities of the compounds of formula (I) are determined in accordance with the following experimental method.
# Intracellular Calcium Measurements:
# Cells expressing recombinant human ALX receptor and the G-protein Gα16 (HEK293-hALXR-Gα16) were grown to 80% confluency in Growing Medium (GM). Cells were detached from culture dishes with a cell dissociation buffer (Invitrogen, 13151-014), and collected by centrifugation at 1,000 rpm at rt for 5 min in Assay Buffer (AB) (equal parts of Hank's BSS (Gibco, 14065-049) and DMEM without Phenol Red (Gibco, 11880-028)). After 60 min incubation at 37° C. under 5% CO2 in AB supplemented with 1 μM Fluo-4 (AM) (Invitrogen, F14202), and 20 mM HEPES (Gibco, 15630-056), the cells were washed and resuspended in AB. They were then seeded onto 384-well FLIPR assay plates (Greiner, 781091) at 50,000 cells in 70 μl per well and sedimented by centrifugation at 1,000 rpm for 1 min. Stock solutions of test compounds were made up at a concentration of 10 mM in DMSO, and serially diluted in AB to concentrations required for activation dose response curves. WKYMVm (Phoenix Peptides) was used as a reference agonist. FLIPR384 or FLIPR Tetra instruments (Molecular Devices) were operated according to the manufacturer's standard instructions, adding 4 μl of test compound dissolved at 10 mM in DMSO and diluted prior to the experiment in assay buffer to obtain the desired final concentration. Changes in fluorescence were monitored before and after the addition of test compounds at lex=488 nm and lem=540 nm. Emission peak values above base level after compounds addition were exported after base line subtraction. Values were normalized to high-level control (WKYMVm compound, 10 nM final concentration) after subtraction of the base line value (AB addition).
row,SMILES,EC50 [µM]
1,"O=C(OC[C@@H]1CCNC[C@H]1F)[C@H]1[C@H](C(=O)Nc2ccc(Br)nc2)[C@@H]2CC[C@H]1C21CC1 (relative stereo) [Example 70, (1S,2R,3R,4R)-[(trans-3-Fluoro-piperidin-4-yl)methyl 2-((6-bromopyridin-3-yl)carbamoyl)spiro[bicyclo[2.2.1]heptane-7,1′-cyclopropane]-3-carboxylate]]",0.157
2,"NC(=O)CCOC(=O)[C@H]1[C@H](C(=O)Nc2ccc(Br)nc2)[C@@H]2CC[C@H]1C21CC1 [Example 68, (1S,2R,3R,4R)-[(3-Amino-3-oxopropyl) 2-((6-bromopyridin-3-yl)carbamoyl)spiro[bicyclo[2.2.1]heptane-7,1′-cyclopropane]-3-carboxylate]]",0.135
3,"O=C(OCC1CCNCC1)[C@H]1[C@H](C(=O)Nc2ccc(Br)nc2)[C@@H]2CC[C@H]1C21CC1 [Example 41, (1S,2R,3R,4R)-[(Piperidin-4-yl)methyl 2-((6-bromopyridin-3-yl)carbamoyl)spiro[bicyclo[2.2.1]heptane-7,1′-cyclopropane]-3-carboxylate]hydrochloride]",0.0052
4,"Cc1cc(CNC(=O)[C@H]2[C@H](C(=O)OCCCN(C)C)[C@H]3CC[C@@H]2C32CC2)no1 [Example 25, (1S,2R,3R,4R)-[1-Dimethylaminoprop-3-yl 2-(((5-methylisoxazol-3-yl)methyl)carbamoyl)spiro[bicyclo[2.2.1]heptane-7,1′-cyclopropane]-3-carboxylate]]",0.33
5,"Cc1cc(CNC(=O)[C@H]2[C@H](C(=O)OCCC3(F)CCNCC3)[C@H]3CC[C@@H]2C32CC2)no1 [Example 58, (1S,2R,3R,4R)-[2-(4-Fluoro-piperidin-4-yl)ethyl 2-(((5-methylisoxazol-3-yl)methyl)carbamoyl)spiro[bicyclo[2.2.1]heptane-7,1′-cyclopropane]-3-carboxylate]]",0.0367
6,"O=C(O[C@@H]1CCNC1)[C@H]1[C@H](C(=O)Nc2ccc(Br)nc2)[C@@H]2CC[C@H]1C21CC1 [Example 13, (1S,2R,3R,4R)-[(R)-Pyrrolidin-3-yl 2-((6-bromopyridin-3-yl)carbamoyl)spiro[bicyclo[2.2.1]heptane-7,1′-cyclopropane]-3-carboxylate]hydrochloride]",0.0179
7,"Cc1cc(CNC(=O)[C@H]2[C@H](C(=O)OCC3CCCCN3C)[C@H]3CC[C@@H]2C32CC2)no1 (stereo partly drawn) [Example 26, (1S,2R,3R,4R)-[1-Methyl-piperidin-2-ylmethyl 2-(((5-methylisoxazol-3-yl)methyl)carbamoyl)spiro[bicyclo[2.2.1]heptane-7,1′-cyclopropane]-3-carboxylate]]",0.406
8,"Cc1cc(CNC(=O)[C@H]2[C@H](C(=O)OCCOCCN3CCCC3)[C@H]3CC[C@@H]2C32CC2)no1 [Example 33, (1S,2R,3R,4R)-[2-(2-(Pyrrolidin-1-yl)ethoxy)ethyl 2-(((5-methylisoxazol-3-yl)methyl)carbamoyl)spiro[bicyclo[2.2.1]heptane-7,1′-cyclopropane]-3-carboxylate]]",0.0307
9,"Cc1cc(CNC(=O)[C@H]2[C@H](C(=O)OCCOCCN3CC[C@H](F)C3)[C@H]3CC[C@@H]2C32CC2)on1 [Example 42, (1S,2R,3R,4R)-[(S)-2-(2-(3-Fluoropyrrolidin-1-yl)ethoxy)ethyl 2-(((3-methylisoxazol-5-yl)methyl)carbamoyl)spiro[bicyclo[2.2.1]heptane-7,1′-cyclopropane]-3-carboxylate]]",0.0072
10,"O=C(OCC[C@@H]1CCCCN1)[C@H]1[C@H](C(=O)Nc2ccc(Br)nc2)[C@@H]2CC[C@H]1C21CC1 [Example 11, (1S,2R,3R,4R)-[(S)-2-(Piperidin-2-yl)ethyl 2-((6-bromopyridin-3-yl)carbamoyl)spiro[bicyclo[2.2.1]heptane-7,1′-cyclopropane]-3-carboxylate]hydrochloride]",0.0088
11,"Cc1cc(CNC(=O)[C@H]2[C@H](C(=O)OCC[C@H]3CCNC[C@H]3F)[C@H]3CC[C@@H]2C32CC2)on1 (relative stereo) [Example 39, (1S,2R,3R,4R)-[2-(cis-3-Fluoro-piperidin-4-yl)ethyl 2-(((3-methylisoxazol-5-yl)methyl)carbamoyl)spiro[bicyclo[2.2.1]heptane-7,1′-cyclopropane]-3-carboxylate]]",0.0037
12,"O=C(OC1CNC1)[C@H]1[C@H](C(=O)Nc2ccc(Br)nc2)[C@@H]2CC[C@H]1C21CC1 [Example 24, (1S,2R,3R,4R)-[Azetidin-3-yl 2-((6-bromopyridin-3-yl)carbamoyl)spiro[bicyclo[2.2.1]heptane-7,1′-cyclopropane]-3-carboxylate]hydrochloride]",0.289
13,"O=C(OCC(O)CO)[C@H]1[C@H](C(=O)Nc2ccc(Br)nc2)[C@@H]2CC[C@H]1C21CC1 (relative stereo) [Example 5, (1S,2R,3R,4R)-[(S*)-2,3-Dihydroxypropyl 2-((6-bromopyridin-3-yl)carbamoyl)spiro[bicyclo[2.2.1]heptane-7,1′-cyclopropane]-3-carboxylate]]",0.242
14,"Cc1cc(CNC(=O)[C@H]2[C@H](C(=O)O[C@@H]3CCNC[C@H]3F)[C@H]3CC[C@@H]2C32CC2)on1 (relative stereo) [Example 46, (1S,2R,3R,4R)-[(trans-3-Fluoro-piperidin-4-yl) 2-(((3-methylisoxazol-5-yl)methyl)carbamoyl)spiro[bicyclo[2.2.1]heptane-7,1′-cyclopropane]-3-carboxylate]]",0.0097
15,"O=C(OC1CCNCC1(F)F)[C@H]1[C@H](C(=O)Nc2ccc(Br)nc2)[C@@H]2CC[C@H]1C21CC1 (stereo partly drawn) [Example 56, (1S,2R,3R,4R)-[(3,3-Difluoro-piperidin-4-yl) 2-((6-bromopyridin-3-yl)carbamoyl)spiro[bicyclo[2.2.1]heptane-7,1′-cyclopropane]-3-carboxylate]]",0.0282
16,"Cc1cc(CNC(=O)[C@H]2[C@H](C(=O)OCC3CCNCC3)[C@H]3CC[C@@H]2C32CC2)no1 [Example 3, (1S,2R,3R,4R)-[Piperidin-4-ylmethyl 2-(((5-methylisoxazol-3-yl)methyl)carbamoyl)spiro[bicyclo[2.2.1]heptane-7,1′-cyclopropane]-3-carboxylate]hydrochloride]",0.0227
17,"Cc1cc(CNC(=O)[C@H]2[C@H](C(=O)OC3CCN(C)C3)[C@H]3CC[C@@H]2C32CC2)no1 (stereo partly drawn) [Example 15, (1S,2R,3R,4R)-[1-Methylpyrrolidin-3-yl 2-(((5-methylisoxazol-3-yl)methyl)carbamoyl)spiro[bicyclo[2.2.1]heptane-7,1′-cyclopropane]-3-carboxylate]]",0.0346
18,"Cc1cc(CNC(=O)[C@H]2[C@H](C(=O)OCCN(C)C)[C@H]3CC[C@@H]2C32CC2)no1 [Example 27, (1S,2R,3R,4R)-[1-Dimethylaminoeth-2-yl 2-(((5-methylisoxazol-3-yl)methyl)carbamoyl)spiro[bicyclo[2.2.1]heptane-7,1′-cyclopropane]-3-carboxylate]]",0.585
19,"Cc1cc(CNC(=O)[C@H]2[C@H](C(=O)OCCOCCN3CC[C@H](F)C3)[C@H]3CC[C@@H]2C32CC2)no1 [Example 34, (1S,2R,3R,4R)-[(S)-2-(2-(3-Fluoropyrrolidin-1-yl)ethoxy)ethyl 2-(((5-methylisoxazol-3-yl)methyl)carbamoyl)spiro[bicyclo[2.2.1]heptane-7,1′-cyclopropane]-3-carboxylate]]",0.0216
